In patent publication US10253002B2, “Compounds and methods of treating infections” (Neoculi Pty Ltd., priority 2013, dated 2019):
In brackets after ≈: the same amount, converted by molar mass. Several values for one entry are separate records, joined by “and”; a condition that tells them apart may be missing. Equal values may be shown once.

Legend:
Assay in all cases: Broth microdilution MIC, Example 7 (NCL812 and analogues)
VRE = type: cell-based, Enterococcus spp.
In short: (§1)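 Isolates were tested in duplicate, with a third run if replicates differed by more than one two-fold dilution; inoculum purity was checked on sheep blood agar.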

Escherichia coli = type: cell-based; details: 24 hours
Pseudomonas aeruginosa = type: cell-based; details: 24 hours
MRSA = type: cell-based, Staphylococcus aureus; details: for activity against MRSA among analogues: MIC testing, two MRSA strains; for MRSA: bioassay ranking
In short: as §1

[1] = isolate VRE 1, 24 hours, 1st and 2nd replicate rows
[2] = isolate VRE 2, 24 hours, 1st and 2nd replicate rows
[3] = isolate MRSA 1, 24 hours, 1st and 2nd replicate rows
[4] = isolate MRSA 2, 24 hours, 1st and 2nd replicate rows
[5] = VRE 1, 24 hours, duplicate lines per compound
[6] = VRE 2, 24 hours, duplicate lines per compound
[7] = E. coli, duplicate lines per compound
[8] = P. aeruginosa, duplicate lines per compound
[9] = MRSA 1, 24 hours, duplicate lines per compound
[10] = MRSA 2, 24 hours, duplicate lines per compound

Row | MIC (μg/ml) at 24 hours, VRE 1 (VRE; [1]) [µg/mL] | MIC (μg/ml) at 24 hours, VRE 2 (VRE; [2]) [µg/mL] | MIC (μg/ml) at 24 hours, E. coli (Escherichia coli; 1st and 2nd replicate rows) | MIC (μg/ml) at 24 hours, P. aeruginosa (Pseudomonas aeruginosa; 1st and 2nd replicate rows) [µg/mL] | MIC (μg/ml) at 24 hours, MRSA 1 (MRSA; [3]) [µg/mL] | MIC (μg/ml) at 24 hours, MRSA 2 (MRSA; [4]) [µg/mL] | MIC (μg/ml) at 24 hours, VRE 1 (VRE; VRE 1, 24 hours) [µg/mL] | MIC (μg/ml) at 24 hours, VRE 2 (VRE; VRE 2, 24 hours) [µg/mL] | MIC (μg/ml) at 24 hours, E. coli (Escherichia coli; E. coli) [µg/mL] | MIC (μg/ml) at 24 hours, P. aeruginosa (Pseudomonas aeruginosa; P. aeruginosa) [µg/mL] | MIC (μg/ml) at 24 hours, MRSA 1 (MRSA; MRSA 1, 24 hours) | MIC (μg/ml) at 24 hours, MRSA 2 (MRSA; MRSA 2, 24 hours) | SMILES | other results
1 | – | – | – | – | – | – | >128 | >128 | >128 | >128 | >128 µg/mL | >128 µg/mL | CC(C)COC(=O)N(N=Cc1ccc(Cl)cc1)C(N)=NN=Cc1ccc(Cl)cc1 [NCL225] | –
2 | – | – | – | – | – | – | >128 | >128 | >128 | >128 | 16 µg/mL and 32 µg/mL | 32 µg/mL (≈ 87.8 µM) | Nc1nc(N/N=C/c2ccccc2O)nc(N/N=C/c2ccccc2O)n1 [NCL207] | activity against MRSA among analogues (MRSA): greatest activity; MRSA (MRSA): 28 µg/mL

More lines, now with the values behind:

Row | SMILES | MIC (μg/ml) at 24 hours, VRE 1 (VRE; [1]) [µg/mL] | MIC (μg/ml) at 24 hours, VRE 2 (VRE; [2]) [µg/mL] | MIC (μg/ml) at 24 hours, E. coli (Escherichia coli; 1st and 2nd replicate rows) | MIC (μg/ml) at 24 hours, P. aeruginosa (Pseudomonas aeruginosa; 1st and 2nd replicate rows) [µg/mL] | MIC (μg/ml) at 24 hours, MRSA 1 (MRSA; [3]) [µg/mL] | MIC (μg/ml) at 24 hours, MRSA 2 (MRSA; [4]) [µg/mL] | MIC (μg/ml) at 24 hours, VRE 1 (VRE; VRE 1, 24 hours) [µg/mL] | MIC (μg/ml) at 24 hours, VRE 2 (VRE; VRE 2, 24 hours) [µg/mL] | MIC (μg/ml) at 24 hours, E. coli (Escherichia coli; E. coli) [µg/mL] | MIC (μg/ml) at 24 hours, P. aeruginosa (Pseudomonas aeruginosa; P. aeruginosa) [µg/mL] | MIC (μg/ml) at 24 hours, MRSA 1 (MRSA; MRSA 1, 24 hours) | MIC (μg/ml) at 24 hours, MRSA 2 (MRSA; MRSA 2, 24 hours) | other results
3 | COc1ccccc1C=NNC(=N)NN=Cc1ccccc1OC.Cl [NCL028] | >128 | 128 | >128 µg/mL | >128 | >128 | >128 | – | – | – | – | – | – | –
4 | Nc1nc(N/N=C/c2ccccc2Cl)cc(N/N=C/c2ccccc2Cl)n1 [NCL205] | – | – | – | – | – | – | 64 (≈ 160 µM) | >128 | >128 | >128 | 4 µg/mL and 8 µg/mL | 4 µg/mL and 8 µg/mL | activity against VRE among analogues (VRE; MIC testing, two VRE strains): greatest activity; activity against MRSA among analogues (MRSA): greatest activity; MRSA (MRSA): 6 µg/mL
5 | NC(=O)N/N=C/c1ccccc1Cl [NCL047] | >128 | >128 | >128 µg/mL | >128 | >128 | >128 | – | – | – | – | – | – | –
6 | O=C(N/N=C/c1ccc(Cl)cc1)N/N=C/c1ccc(Cl)cc1 [NCL001] | >128 | >128 | >128 µg/mL and >126 µg/mL | >128 | >128 | >128 | – | – | – | – | – | – | –
7 | COc1ccc(C=NNC(=N)NN=Cc2ccc(OC)c(O)c2)cc1O.Cl [NCL 125] | – | – | – | – | – | – | – | – | – | – | – | – | MIC (μg/ml) at 24 hours, VRE 1 (VRE; [5]): >128 µg/mL; MIC (μg/ml) at 24 hours, VRE 2 (VRE; [6]): >128 µg/mL; MIC (μg/ml) at 24 hours, E. coli (Escherichia coli; [7]): >128 µg/mL; MIC (μg/ml) at 24 hours, P. aeruginosa (Pseudomonas aeruginosa; [8]): >128 µg/mL; MIC (μg/ml) at 24 hours, MRSA 1 (MRSA; [9]): >128 µg/mL; MIC (μg/ml) at 24 hours, MRSA 2 (MRSA; [10]): >128 µg/mL
8 | CCC(=NNC(=N)NN=C(CC)c1ccc(Cl)cc1O)c1ccc(Cl)cc1O.Cl [NCL 158] | – | – | – | – | – | – | – | – | – | – | – | – | MIC (μg/ml) at 24 hours, VRE 1 (VRE; [5]): 4 µg/mL; MIC (μg/ml) at 24 hours, VRE 2 (VRE; [6]): 4 µg/mL; MIC (μg/ml) at 24 hours, E. coli (Escherichia coli; [7]): >128 µg/mL; MIC (μg/ml) at 24 hours, P. aeruginosa (Pseudomonas aeruginosa; [8]): >128 µg/mL; MIC (μg/ml) at 24 hours, MRSA 1 (MRSA; [9]): 4 µg/mL; MIC (μg/ml) at 24 hours, MRSA 2 (MRSA; [10]): 4 µg/mL
9 | CC(C)(C)c1ccc(/C=N/Nc2cc(N/N=C/c3ccc(C(C)(C)C)cc3)nc(N)n2)cc1 [NCL200] | – | – | – | – | – | – | >128 | >128 | >128 | >128 | >128 µg/mL | >128 µg/mL | –
10 | Cc1cccc(/C=N/NC(=N)N)c1.Cl [NCL046] | >128 | >128 | >128 µg/mL | >128 | >128 | >128 | – | – | – | – | – | – | –
